Test results taken from US20240279278A1, “NMU RECEPTOR 2 AGONISTS” (Boehringer Ingelheim International GmbH, priority 2023, published 2024).
Residues, ends and D or L forms follow the SMILES beside them.

Tests used:
human NMUR1 receptor = biological target: T1, human NMUR1 receptor (Homo sapiens, UniProt Q9HB89); assay: Radioligand binding competition assay (RLB), human NMUR1 receptor binding (SPA, [125I]-Neuromedin U-25); settings: CHO-K1 hNMUR1 cell membranes, 4 hours at RT
T1 construct: host or cells: CHO-K1
T1 sequence (Q9HB89 24-426 limits assumed): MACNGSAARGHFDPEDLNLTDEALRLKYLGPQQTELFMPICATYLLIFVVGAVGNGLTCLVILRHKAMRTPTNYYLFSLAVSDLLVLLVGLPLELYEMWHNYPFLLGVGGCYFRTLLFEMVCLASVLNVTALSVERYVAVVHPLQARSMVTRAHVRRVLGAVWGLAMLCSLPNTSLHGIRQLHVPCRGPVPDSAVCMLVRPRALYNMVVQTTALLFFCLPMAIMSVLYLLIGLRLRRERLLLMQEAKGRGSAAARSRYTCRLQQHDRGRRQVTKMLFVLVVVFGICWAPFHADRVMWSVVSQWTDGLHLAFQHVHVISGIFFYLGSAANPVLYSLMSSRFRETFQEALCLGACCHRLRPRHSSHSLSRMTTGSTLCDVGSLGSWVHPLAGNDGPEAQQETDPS
Source text: Example 2: Radioligand Binding Competition Assay (RLB) Human NMUR1 Receptor Binding 1) Membranes The test is based on membranes prepared from a human NMUR1/Apoaequorin Stable Cell Line (Creative Biogene, Cat. No. CSC-RG1308). Cell Line Description: CHO-NMUR1 cell line is clonally-derived from a CHO-K1 cell line, which has been transfected with a bicistronic expression plasmid containing the sequence coding for the human neuromedin U receptor 1 (NM_006056.4, 180 to 1391). Mosaic-ID: CL16550614 Membrane preparation: Cells were broken by nitrogen cavitation (900 psi, 1 hour). Intact cells were removed by centrifugation (400 rcf, 10 minutes, 4° C.) before the crude membrane fraction was collected by ultracentrifugation (20.000 rcf, 1 hour, 4° C.). 2) Human NMUR1 Receptor Binding Assay (Radioligand: [125l]-Neuromedin U-25) In this Scintillation Proximity Assay (SPA) design, the membranes immobilize directly to the PVT-WGA-PEI type A beads (polyethyleneimine treated polyvinyltoluene beads coupled to wheatgerm agglutinin, Perkin Elmer) via interactions of wheat germ agglutinate and glycosylated membrane structures. Thereby the radioactively la-belled ligand, bound to NMUR1 receptors on the membrane, comes in close proximity to the solid scintillator of the PVT bead. Radioactive human neuromedin U-25 then stimulates the scintillant to emit light. In contrast, radioligand not bound to the receptor is too distant from the bead to elicit a signal. For the Scintillation Proximity Assay the CHO-K1 hNMUR1 cell membranes and SPA-beads are diluted to concentrations, which assure a robust signal to background ratio. The SPA incubation buffer consists of 25 mM Hepes (pH=7.0), 5 mM MgCl2, 1 mM CaCl2, 10 ug/mL Saponine and 0.1% bovine serum albumin and is used for all dilutions. Final assay setup in 96-well plate: 20 μL of 10× test compound dilutions+40 μL of 5× [125l]-Neuromedin U-25 (1× approx. 30 pM; 2000 μCi/mmol (μCi=microcurie))+60 μL membrane dilution (approx. 1.0 μg membrane protein)+80 μL SPA bead dilution (250 μg). The assay is incubated for 4 hours at RT, including controls for specific binding where no displacer is added and non-specific binding by adding unlabeled hNMU-25 at 100 nM. Bound radioactivity is determined by scintillation counting (MicroBeta Trilux 1450, Perkin Elmer, detection of 125I decay). […] The system assumes one binding site with no relevant radioligand depletion (<10%) and that the binding is reversible and at equilibrium. [formula] [formula]

human NMUR2 receptor = human NMUR2 receptor (Homo sapiens, UniProt Q9GZQ4); assay: IP1 Gq HTRF assay, activation of human NMUR2 in human plasma; type: cell-based; parameters: expressed in transfected cells; host or cells: CHO-K1; settings: CHO-K1 cells expressing human NMUR2, 100% human plasma; read-out: EC50 (hNMUR2) human plasma
In short: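 CHO-K1 cells stably expressing human NMUR2 exposed to peptide agonists (8-point dose-response) in 100% human plasma with 50 mM LiCl, 1% DMSO, for 1 h at 37° C. IP1 accumulation read by HTRF competition (665/620 nm ratio). EC50 from 4-parameter sigmoidal fit.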

Chain of human NMUR2 receptor (Q9GZQ4 whole entry): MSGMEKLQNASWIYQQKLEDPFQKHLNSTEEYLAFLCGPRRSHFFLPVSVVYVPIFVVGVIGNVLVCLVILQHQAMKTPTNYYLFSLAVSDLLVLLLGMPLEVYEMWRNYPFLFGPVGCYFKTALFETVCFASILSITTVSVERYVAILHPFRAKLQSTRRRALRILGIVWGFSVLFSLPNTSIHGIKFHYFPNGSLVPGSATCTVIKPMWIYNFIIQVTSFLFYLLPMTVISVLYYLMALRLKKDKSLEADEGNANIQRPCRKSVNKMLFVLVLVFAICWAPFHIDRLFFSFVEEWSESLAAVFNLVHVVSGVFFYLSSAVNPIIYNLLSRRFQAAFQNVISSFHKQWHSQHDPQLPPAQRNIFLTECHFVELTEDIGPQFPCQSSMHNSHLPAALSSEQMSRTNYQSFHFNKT

SMILES: CCCC[C@H](NC(=O)[C@H](CC(C)C)N(C)C(=O)[C@H](Cc1ccccc1)NC(=O)[C@H](Cc1ccc(O)cc1)NC(=O)CN1CCN(CCNC(=O)CN(C)C(=O)CN(C)C(=O)CN(C)C(=O)CN(C)C(=O)CN(C)C(=O)CN(C)C(=O)CN(C)C(=O)CN(C)C(=O)CN(C)C(=O)CN(C)C(=O)CN(C)C(=O)CN(C)C(=O)CN(C)C(=O)CN(C)C(=O)CN(C)C(=O)CC[C@H](NC(=O)CC[C@H](NC(=O)CC[C@H](NC(=O)CCCCCCCCCCCCCCCCC(=O)O)C(=O)O)C(=O)O)C(=O)O)CC1)C(=O)N[C@@H](CCN)C(=O)N1CCC[C@H]1C(=O)N[C@@H](CCCNC(=N)N)C(=O)NCC(N)=O [Compound 26, C18DA-gGlu3-Sar15-AEPipAc-Tyr-Phe-NMeLeu-Nle-Dbu-Pro-Arg-Gly-NH2] (HELM PEPTIDE1{[O=C(O)CCCCCCCCCCCCCCCCC(=O)[*:2]].[gGlu].[gGlu].[gGlu].[Sar].[Sar].[Sar].[Sar].[Sar].[Sar].[Sar].[Sar].[Sar].[Sar].[Sar].[Sar].[Sar].[Sar].[Sar].[O=C(CN1CCN(CCN[*:1])CC1)[*:2]].Y.F.[meL].[Nle].[Dab].P.R.G.[am]}$$$$V2.0)
- Ki (human NMUR1 receptor): > 10 µM
- EC50 (human NMUR2 receptor): 0.0039 µM

SMILES: CCCC[C@H](NC(=O)[C@H](CC(C)C)N(C)C(=O)[C@H](Cc1ccccc1)NC(=O)[C@H](Cc1ccc(O)cc1)NC(=O)CN1CCN(CCNC(=O)CN(C)C(=O)CN(C)C(=O)CN(C)C(=O)CN(C)C(=O)CN(C)C(=O)CN(C)C(=O)CN(C)C(=O)CN(C)C(=O)CN(C)C(=O)CN(C)C(=O)CN(C)C(=O)CN(C)C(=O)CC[C@H](NC(=O)CC[C@H](NC(=O)CC[C@H](NC(=O)CCCCCCCCCCCCCCCCC(=O)O)C(=O)O)C(=O)O)C(=O)O)CC1)C(=O)N[C@@H](CCN)C(=O)N1CCC[C@H]1C(=O)N[C@@H](CCCNC(=N)N)C(=O)NCC(N)=O [Compound 27, C18DA-gGlu3-Sar12-AEPipAc-Tyr-Phe-NMeLeu-Nle-Dbu-Pro-Arg-Gly-NH2]
- Ki (human NMUR1 receptor): > 10 µM
- EC50 (human NMUR2 receptor): 0.0069 µM

SMILES: CCCC[C@H](NC(=O)[C@H](CC(C)C)N(C)C(=O)[C@H](Cc1ccccc1)NC(=O)[C@H](Cc1ccc(O)cc1)NC(=O)CN1CCN(CCNC(=O)CN(C)C(=O)CN(C)C(=O)CN(C)C(=O)CN(C)C(=O)CN(C)C(=O)CN(C)C(=O)CN(C)C(=O)CN(C)C(=O)CN(C)C(=O)CC[C@H](NC(=O)CC[C@H](NC(=O)CC[C@H](NC(=O)CCCCCCCCCCCCCCCCC(=O)O)C(=O)O)C(=O)O)C(=O)O)CC1)C(=O)N[C@@H](CCN)C(=O)N(C)[C@@H](C)C(=O)N[C@@H](CCCNC(=N)N)C(=O)NCC(N)=O [Compound 28, C18DA-gGlu3-Sar9-AEPipAc-Tyr-Phe-NMeLeu-Nle-Dbu-NMeAla-Arg-Gly-NH2] (HELM PEPTIDE1{[O=C(O)CCCCCCCCCCCCCCCCC(=O)[*:2]].[gGlu].[gGlu].[gGlu].[Sar].[Sar].[Sar].[Sar].[Sar].[Sar].[Sar].[Sar].[Sar].[O=C(CN1CCN(CCN[*:1])CC1)[*:2]].Y.F.[meL].[Nle].[Dab].[meA].R.G.[am]}$$$$V2.0)
- Ki (human NMUR1 receptor): > 10 µM
- EC50 (human NMUR2 receptor): 0.0108 µM

SMILES: CCCC[C@H](NC(=O)[C@H](CC(C)C)N(C)C(=O)[C@H](Cc1ccccc1)NC(=O)[C@H](Cc1ccc(O)cc1)NC(=O)CN1CCN(CCNC(=O)CN(C)C(=O)CN(C)C(=O)CN(C)C(=O)CN(C)C(=O)CN(C)C(=O)CN(C)C(=O)CN(C)C(=O)CN(C)C(=O)CN(C)C(=O)CN(C)C(=O)CN(C)C(=O)CN(C)C(=O)CC[C@H](NC(=O)CC[C@H](NC(=O)CC[C@H](NC(=O)CCCCCCCCCCCCCCCCC(=O)O)C(=O)O)C(=O)O)C(=O)O)CC1)C(=O)N[C@@H](CCN)C(=O)N(C)[C@@H](C)C(=O)N[C@@H](CCCNC(=N)N)C(=O)NCC(N)=O [Compound 38, C18DA-gGlu3-Sar12-AEPipAc-Tyr-Phe-NMeLeu-Nle-Dbu-NMeAla-Arg-Gly-NH2]
- Ki (human NMUR1 receptor): > 10 µM
- EC50 (human NMUR2 receptor): 0.0097 µM

SMILES: CCCC[C@H](NC(=O)[C@H](CC(C)C)N(C)C(=O)[C@H](Cc1ccccc1)NC(=O)[C@H](Cc1ccc(O)cc1)NC(=O)CN1CCN(CCNC(=O)CN(C)C(=O)CN(C)C(=O)CN(C)C(=O)CN(C)C(=O)CN(C)C(=O)CN(C)C(=O)CN(C)C(=O)CN(C)C(=O)CN(C)C(=O)CN(C)C(=O)CN(C)C(=O)CN(C)C(=O)CN(C)C(=O)CN(C)C(=O)CN(C)C(=O)CC[C@H](NC(=O)CC[C@H](NC(=O)CC[C@H](NC(=O)CCCCCCCCCCCCCCCCCCC(=O)O)C(=O)O)C(=O)O)C(=O)O)CC1)C(=O)N[C@@H](CCN)C(=O)N1CCC[C@H]1C(=O)N[C@@H](CCCNC(=N)N)C(=O)NCC(N)=O [Compound 42, C20DA-gGlu3-Sar15-AEPipAc-Tyr-Phe-NMeLeu-Nle-Dbu-Pro-Arg-Gly-NH2] (HELM PEPTIDE1{[O=C(O)CCCCCCCCCCCCCCCCCCC(=O)[*:2]].[gGlu].[gGlu].[gGlu].[Sar].[Sar].[Sar].[Sar].[Sar].[Sar].[Sar].[Sar].[Sar].[Sar].[Sar].[Sar].[Sar].[Sar].[Sar].[O=C(CN1CCN(CCN[*:1])CC1)[*:2]].Y.F.[meL].[Nle].[Dab].P.R.G.[am]}$$$$V2.0)
- Ki (human NMUR1 receptor): > 10 µM
- EC50 (human NMUR2 receptor): 0.0058 µM

SMILES: CCCC[C@H](NC(=O)[C@H](CC(C)C)N(C)C(=O)[C@H](Cc1ccccc1)NC(=O)[C@H](Cc1ccc(O)cc1)NC(=O)CN1CCN(CCNC(=O)CN(C)C(=O)CN(C)C(=O)CN(C)C(=O)CN(C)C(=O)CN(C)C(=O)CN(C)C(=O)CN(C)C(=O)CN(C)C(=O)CN(C)C(=O)CN(C)C(=O)CN(C)C(=O)CN(C)C(=O)CN(C)C(=O)CN(C)C(=O)CN(C)C(=O)CC[C@H](NC(=O)CC[C@H](NC(=O)CC[C@H](NC(=O)CCCCCCCCCCCCCCCCCCC(=O)O)C(=O)O)C(=O)O)C(=O)O)CC1)C(=O)N[C@@H](CCN)C(=O)N(C)[C@@H](C)C(=O)N[C@@H](CCCNC(=N)N)C(=O)NCC(N)=O [Compound 43, C20DA-gGlu3-Sar15-AEPipAc-Tyr-Phe-NMeLeu-Nle-Dbu-NMeAla-Arg-Gly-NH2] (HELM PEPTIDE1{[O=C(O)CCCCCCCCCCCCCCCCCCC(=O)[*:2]].[gGlu].[gGlu].[gGlu].[Sar].[Sar].[Sar].[Sar].[Sar].[Sar].[Sar].[Sar].[Sar].[Sar].[Sar].[Sar].[Sar].[Sar].[Sar].[O=C(CN1CCN(CCN[*:1])CC1)[*:2]].Y.F.[meL].[Nle].[Dab].[meA].R.G.[am]}$$$$V2.0)
- Ki (human NMUR1 receptor): > 10 µM
- EC50 (human NMUR2 receptor): 0.0101 µM

SMILES: CCCC[C@H](NC(=O)[C@H](CC(C)C)N(C)C(=O)[C@H](Cc1ccccc1)NC(=O)[C@H](Cc1ccc(O)cc1)NC(=O)CN1CCN(CCNC(=O)CN(C)C(=O)CN(C)C(=O)CN(C)C(=O)CN(C)C(=O)CN(C)C(=O)CN(C)C(=O)CN(C)C(=O)CN(C)C(=O)CN(C)C(=O)CC[C@H](NC(=O)CC[C@H](NC(=O)CC[C@H](NC(=O)CCCCCCCCCCCCCCCCCCC(=O)O)C(=O)O)C(=O)O)C(=O)O)CC1)C(=O)N[C@@H](CCCNC(=N)N)C(=O)N1CCC[C@H]1C(=O)N[C@@H](CCCNC(=N)N)C(=O)NCC(N)=O [Compound 65, C20DA-gGlu3-Sar9-AEPipAc-Tyr-Phe-NMeLeu-Nle-Arg-Pro-Arg-Gly-NH2] (HELM PEPTIDE1{[O=C(O)CCCCCCCCCCCCCCCCCCC(=O)[*:2]].[gGlu].[gGlu].[gGlu].[Sar].[Sar].[Sar].[Sar].[Sar].[Sar].[Sar].[Sar].[Sar].[O=C(CN1CCN(CCN[*:1])CC1)[*:2]].Y.F.[meL].[Nle].R.P.R.G.[am]}$$$$V2.0)
- Ki (human NMUR1 receptor): 0.722 µM
- EC50 (human NMUR2 receptor): 0.0117 µM
